Assay results: US20100184601A1, “Method and Means Relating to Multiple Herbicide Resistance in Plants” (University of Durham, priority 2007, published 2010)

Tested on: AmGSTL1
Assay: Effect of inhibitors on activity of recombinant black-grass AmGSTL (thiol transferase)
Assay type: biochemical, black-grass (Alopecurus myosuroides)
Settings: 0.1 mM inhibitor; recombinant enzyme

inhibition of AmGSTL1 activity: totally inhibited
SMILES: O=C1O/C(=C/Br)CCC1c1cccc2ccccc12 (stereo not shown) [BEL, Bromoenol lactone]
